The values that follow come from PMC10578352, “Identification of a Protein Arginine Methyltransferase 7 (PRMT7)/Protein Arginine Methyltransferase 9 (PRMT9) Inhibitor” (Journal of Medicinal Chemistry, 2023).

The structures appear in SMILES notation. “Also recorded” adds a separate entry of the source.

Usually IC50 stands for the concentration needed to halve the response being measured.

What all share (type): biochemical
In one experiment the target is T1, human recombinant PRMT9 (Homo sapiens, UniProt Q6P2P2).
T1 construct: human recombinant PRMT9 (2–845; N-terminal FLAG-tag, C-terminal His6-tag); FLAG (N); His6 (C); purchased BPS BioScience 79124
T1 sequence (Q6P2P2 2-845): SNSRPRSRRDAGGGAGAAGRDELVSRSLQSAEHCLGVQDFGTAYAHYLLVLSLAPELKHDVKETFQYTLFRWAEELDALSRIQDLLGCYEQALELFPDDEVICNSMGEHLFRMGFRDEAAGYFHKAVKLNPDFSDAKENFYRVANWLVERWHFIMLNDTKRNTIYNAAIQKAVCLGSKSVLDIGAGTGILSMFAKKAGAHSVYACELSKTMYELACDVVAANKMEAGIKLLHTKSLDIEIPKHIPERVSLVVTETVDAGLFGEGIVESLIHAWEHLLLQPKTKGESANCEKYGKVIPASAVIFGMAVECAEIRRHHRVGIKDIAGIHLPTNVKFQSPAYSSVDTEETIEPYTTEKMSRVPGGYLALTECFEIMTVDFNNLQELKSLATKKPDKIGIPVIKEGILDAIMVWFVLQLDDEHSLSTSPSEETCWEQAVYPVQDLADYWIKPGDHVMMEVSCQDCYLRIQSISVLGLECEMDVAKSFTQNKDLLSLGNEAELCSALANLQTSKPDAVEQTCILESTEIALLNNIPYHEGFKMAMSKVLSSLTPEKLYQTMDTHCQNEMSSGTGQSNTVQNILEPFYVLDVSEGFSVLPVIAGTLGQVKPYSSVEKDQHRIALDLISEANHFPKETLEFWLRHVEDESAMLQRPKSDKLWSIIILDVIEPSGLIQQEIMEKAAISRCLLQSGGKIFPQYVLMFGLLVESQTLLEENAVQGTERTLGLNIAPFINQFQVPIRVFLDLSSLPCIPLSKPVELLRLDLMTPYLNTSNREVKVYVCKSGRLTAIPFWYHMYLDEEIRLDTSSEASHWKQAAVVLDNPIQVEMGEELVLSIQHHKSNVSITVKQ
Description: AlphaLISA PRMT9 activity assay (modified BPS kit, biotinylated SF3B2 peptide). To be noted: for IC50 / PRMT9 IC50: PRMT9 0.105 μM, biotinylated SF3B2 (500–519) peptide 100 nM, SAM 25 μM; for PRMT9 inhibition (in words): in-house AlphaLISA assay. How it is done: Accordingly, all the enzymatic inhibition data were obtained by performing the assays in these optimized conditions.
The reaction was incubated for 60 min. Afterward, in each well, 5 μL of a 1:100 dilution of Primary antibody 28 (BPS BioScience, #52140Z3) in Detection buffer (BPS BioScience) and 5 μL of anti-Rabbit acceptor beads (PerkinElmer, #AL104C) were added to obtain a final concentration of 20 μg/mL.
For each incubation step, the OptiPlate was sealed with a protective foil to prevent evaporation and contamination. Donor and Acceptor beads were added to the mixture in subdued light.
The 100% activity (positive control) was reached using vehicle (DMSO), while 0% activity (negative control) was obtained without the protein. Data were analyzed by using Excel and Prism software. Values obtained for each compound are mean ± SD determined for three separate experiments.
On the technique in general: Alpha assays give light when donor and acceptor beads are brought close together.

The target of another experiment is T2, PRMT4 (Homo sapiens, UniProt Q86X55).
T2 construct: PRMT4 (residues 2–608, C-terminus); with an N-terminal GST-tag; GST (N); purchased Reaction Biology Corporation
T2 sequence (Q86X55 2-608): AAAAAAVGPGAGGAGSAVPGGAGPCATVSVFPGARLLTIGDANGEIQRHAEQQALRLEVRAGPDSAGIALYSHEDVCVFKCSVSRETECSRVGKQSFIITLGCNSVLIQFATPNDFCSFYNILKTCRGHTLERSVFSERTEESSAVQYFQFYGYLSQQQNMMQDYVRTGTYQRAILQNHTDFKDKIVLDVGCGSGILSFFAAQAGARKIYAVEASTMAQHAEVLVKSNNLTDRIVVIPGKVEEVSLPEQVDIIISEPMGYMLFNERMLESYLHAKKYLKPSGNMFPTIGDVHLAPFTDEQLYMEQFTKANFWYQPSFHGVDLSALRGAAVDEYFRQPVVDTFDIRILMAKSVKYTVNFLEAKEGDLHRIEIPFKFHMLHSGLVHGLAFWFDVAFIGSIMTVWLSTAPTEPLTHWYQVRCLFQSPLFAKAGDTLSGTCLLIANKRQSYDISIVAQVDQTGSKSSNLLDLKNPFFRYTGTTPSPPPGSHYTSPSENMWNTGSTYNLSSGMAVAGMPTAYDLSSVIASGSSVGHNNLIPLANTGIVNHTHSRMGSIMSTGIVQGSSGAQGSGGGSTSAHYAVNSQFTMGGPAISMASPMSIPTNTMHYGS
Description: HotSpot radioisotope-based filter assay, PRMT4. To be noted: Figure 2; from IC50 values of ref 31. The procedure:
(§1) Then, ^3H-SAM (final concentration of 1 μM) was delivered into the reaction mixture to initiate the reaction. After incubation for 60 min at 30 °C, the reaction mixture was delivered to filter-paper for detection (as assessed by scintillation). Data were analyzed using Excel and GraphPad Prism 6.0 software (GraphPad Software Inc., San Diego, CA) for IC50 curve fits using sigmoidal dose vs response - variable slope (four parameters) equations.

The next experiment concerns the target T3, PRMT6 (Homo sapiens, UniProt Q96LA8).
T3 construct: PRMT6 (residues 2–375, C-terminus); with an N-terminal GST-tag; GST (N); purchased Reaction Biology Corporation
Description: HotSpot radioisotope-based filter assay, PRMT6. The conditions noted are these: Figure 2; from IC50 values of ref 31. The procedure:
as §1

A further experiment addresses T4, PRMT5/MEP50 complex (Homo sapiens, UniProt O14744).
T4 construct: residues PRMT5 2–637, C-terminus, and MEP50 2–342, C-terminus; FLAG (N); purchased Reaction Biology Corporation
Description: HotSpot radioisotope-based filter assay, PRMT5. The conditions noted are these: Figure 2; from IC50 values of ref 31. The procedure: as §1

A further experiment has as its target T5, PRMT3 (Homo sapiens, UniProt O60678).
T5 construct: PRMT3 (residues 2–531, C-terminus); with an N-terminal His-tag; His (N); purchased Reaction Biology Corporation
Description: HotSpot radioisotope-based filter assay, PRMT3. The conditions noted are these: Figure 2; from IC50 values of ref 31. How it is done:
as §1

The target in another experiment is T6, PRMT1 (Homo sapiens, UniProt Q99873).
T6 construct: PRMT1 (residues 2–371, C-terminus); with an N-terminal GST-tag; GST (N); purchased Reaction Biology Corporation
T6 sequence (Q99873 2-371): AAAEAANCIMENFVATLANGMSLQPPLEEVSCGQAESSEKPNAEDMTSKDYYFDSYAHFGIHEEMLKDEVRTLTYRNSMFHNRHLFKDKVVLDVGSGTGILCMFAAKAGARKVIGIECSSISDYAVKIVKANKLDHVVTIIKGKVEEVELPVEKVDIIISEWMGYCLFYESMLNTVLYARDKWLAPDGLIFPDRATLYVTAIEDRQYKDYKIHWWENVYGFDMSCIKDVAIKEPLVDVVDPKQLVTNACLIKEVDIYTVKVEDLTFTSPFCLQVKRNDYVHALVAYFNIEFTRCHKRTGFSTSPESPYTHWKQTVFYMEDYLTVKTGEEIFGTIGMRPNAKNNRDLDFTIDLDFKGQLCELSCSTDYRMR
As to the kind of experiment: HotSpot radioisotope-based filter assay, PRMT1. The conditions noted are these: Figure 2; from IC50 values of ref 31. How it is done:
as §1

In a further experiment the target is T7, PRMT8 (Homo sapiens, UniProt Q9NR22).
T7 construct: (residues 61–394, C-terminus); with C- and N-terminal His-tags; His (N); His (C); purchased Reaction Biology Corporation
T7 sequence (Q9NR22 61-394): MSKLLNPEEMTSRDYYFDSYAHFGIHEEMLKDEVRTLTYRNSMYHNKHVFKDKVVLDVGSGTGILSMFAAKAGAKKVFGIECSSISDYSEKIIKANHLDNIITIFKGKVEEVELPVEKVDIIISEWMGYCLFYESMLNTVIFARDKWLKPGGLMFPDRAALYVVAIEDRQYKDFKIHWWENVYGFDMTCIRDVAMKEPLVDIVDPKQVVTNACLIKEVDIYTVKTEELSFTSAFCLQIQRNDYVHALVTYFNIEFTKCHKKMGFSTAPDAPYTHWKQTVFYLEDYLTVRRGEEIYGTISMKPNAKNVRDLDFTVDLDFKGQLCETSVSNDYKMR
As to the kind of experiment: HotSpot radioisotope-based filter assay, PRMT8. To be noted: Figure 2; from IC50 values of ref 31. How it is done:
as §1

T3 sequence (Q96LA8 2-375): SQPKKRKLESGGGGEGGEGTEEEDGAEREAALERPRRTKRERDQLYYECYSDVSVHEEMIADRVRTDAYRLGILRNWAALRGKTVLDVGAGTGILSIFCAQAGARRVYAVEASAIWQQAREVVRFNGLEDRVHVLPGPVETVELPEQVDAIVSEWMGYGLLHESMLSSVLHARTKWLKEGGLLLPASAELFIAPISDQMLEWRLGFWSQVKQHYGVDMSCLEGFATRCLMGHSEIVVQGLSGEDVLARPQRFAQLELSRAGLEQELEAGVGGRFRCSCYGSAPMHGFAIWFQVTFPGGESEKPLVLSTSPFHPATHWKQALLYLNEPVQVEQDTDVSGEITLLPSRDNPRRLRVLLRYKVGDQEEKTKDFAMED
T4 sequence (O14744 2-637): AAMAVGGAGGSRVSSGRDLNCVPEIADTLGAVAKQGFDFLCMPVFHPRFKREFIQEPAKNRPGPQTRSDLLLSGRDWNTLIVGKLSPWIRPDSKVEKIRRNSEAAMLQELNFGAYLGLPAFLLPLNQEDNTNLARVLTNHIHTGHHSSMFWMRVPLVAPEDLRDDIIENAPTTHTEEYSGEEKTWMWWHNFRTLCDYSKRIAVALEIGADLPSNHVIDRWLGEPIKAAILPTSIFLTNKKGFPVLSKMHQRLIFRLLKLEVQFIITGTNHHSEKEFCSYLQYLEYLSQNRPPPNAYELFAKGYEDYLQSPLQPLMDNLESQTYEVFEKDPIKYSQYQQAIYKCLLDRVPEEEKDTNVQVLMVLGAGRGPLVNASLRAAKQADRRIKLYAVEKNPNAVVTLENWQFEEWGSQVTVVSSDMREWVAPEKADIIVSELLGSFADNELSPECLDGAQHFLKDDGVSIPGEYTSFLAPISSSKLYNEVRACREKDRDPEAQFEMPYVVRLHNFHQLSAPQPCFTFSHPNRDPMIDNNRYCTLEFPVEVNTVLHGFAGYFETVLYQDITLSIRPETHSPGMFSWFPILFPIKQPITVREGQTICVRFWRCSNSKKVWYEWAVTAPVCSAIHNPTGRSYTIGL
T4 sequence (Q9BQA1 2-342 partner limits assumed): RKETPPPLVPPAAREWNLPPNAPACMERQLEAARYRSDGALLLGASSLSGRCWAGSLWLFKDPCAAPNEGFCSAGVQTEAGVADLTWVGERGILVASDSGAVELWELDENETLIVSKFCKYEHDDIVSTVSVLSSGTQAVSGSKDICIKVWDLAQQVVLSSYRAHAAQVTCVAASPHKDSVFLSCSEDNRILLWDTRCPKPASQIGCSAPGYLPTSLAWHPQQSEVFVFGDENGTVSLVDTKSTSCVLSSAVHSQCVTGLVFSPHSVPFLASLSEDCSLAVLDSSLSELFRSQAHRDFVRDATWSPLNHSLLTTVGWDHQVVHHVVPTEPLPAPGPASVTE
T5 sequence (O60678 2-531): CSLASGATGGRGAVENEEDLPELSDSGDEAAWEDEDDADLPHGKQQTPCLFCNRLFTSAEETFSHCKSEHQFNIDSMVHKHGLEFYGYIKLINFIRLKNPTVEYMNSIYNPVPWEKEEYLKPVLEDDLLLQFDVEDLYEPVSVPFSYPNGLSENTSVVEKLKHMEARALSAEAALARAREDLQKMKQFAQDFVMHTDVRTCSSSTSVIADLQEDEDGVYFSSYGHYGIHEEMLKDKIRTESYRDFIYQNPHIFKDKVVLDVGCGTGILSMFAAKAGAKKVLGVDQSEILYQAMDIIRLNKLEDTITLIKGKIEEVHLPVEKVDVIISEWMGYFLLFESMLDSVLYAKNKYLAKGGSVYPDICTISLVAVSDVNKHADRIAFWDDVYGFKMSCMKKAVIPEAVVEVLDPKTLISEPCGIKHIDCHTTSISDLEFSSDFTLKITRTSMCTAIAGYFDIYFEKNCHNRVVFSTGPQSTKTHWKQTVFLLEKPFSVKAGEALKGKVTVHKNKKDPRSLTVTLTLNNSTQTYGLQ

`COC(=O)c1cc(O)c2cc(NC(=O)NCCCCCCNC(=N)NC[C@H]3O[C@@H](n4cnc5c(N)ncnc54)[C@H](O)[C@@H]3O)ccc2c1` [1d]: the IC50 on human recombinant PRMT9 turned out to be 1.02 µM.
Regarding `COC(=O)c1cc(O)c2cc(NC(=O)NCCCCCCCNC(=N)NC[C@H]3O[C@@H](n4cnc5c(N)ncnc54)[C@H](O)[C@@H]3O)ccc2c1` [1e], the “selectivity index for PRMT7 over PRMT4” value on PRMT4 is 0.28 fold. In addition, the “selectivity index for PRMT7 over PRMT6” value on PRMT6 came out at 56 fold. Further, the “selectivity index for PRMT7 over PRMT5” value at PRMT5/MEP50 complex is reported as 5 fold. Further, the “selectivity index for PRMT7 over PRMT3” value on PRMT3 is on record as 20 fold. Also, at human recombinant PRMT9, the half-maximal inhibitory concentration (IC50) was determined as 1.3 µM. Further, on PRMT1, the “selectivity index for PRMT7 over PRMT1” value stood at 4 fold. For the same compound, on PRMT8, the “selectivity index for PRMT7 over PRMT8” value was found to be 9 fold.
For `COC(=O)c1cc(O)c2cc(NC(=O)NCCCCNC(=N)NCC[C@H]3O[C@@H](n4cnc5c(N)ncnc54)[C@H](O)[C@@H]3O)ccc2c1` [1f], the “selectivity index for PRMT7 over PRMT4” value on PRMT4 is given as 0.04 fold. Also, the “selectivity index for PRMT7 over PRMT6” value at PRMT6 stood at 100 fold. Also, the “selectivity index for PRMT7 over PRMT5” value on PRMT5/MEP50 complex came out at 0.51 fold. Further, the “selectivity index for PRMT7 over PRMT3” value at PRMT3 amounted to 46 fold. The IC50 at human recombinant PRMT9 came to 1.2 µM. Also, the “selectivity index for PRMT7 over PRMT1” value on PRMT1 was 22 fold. Besides, the “selectivity index for PRMT7 over PRMT8” value on PRMT8 is recorded as 27 fold.
On to `COC(=O)c1cc(O)c2cc(NC(=O)NCCCCNC(=N)NCCC[C@H]3O[C@@H](n4cnc5c(N)ncnc54)[C@H](O)[C@@H]3O)ccc2c1` [1g], for which the “selectivity index for PRMT7 over PRMT4” value at PRMT4 was determined as 0.002 fold. In addition, at PRMT6, the “selectivity index for PRMT7 over PRMT6” value was determined as 0.93 fold. Besides, the “selectivity index for PRMT7 over PRMT5” value at PRMT5/MEP50 complex is 0.17 fold. At PRMT3, the “selectivity index for PRMT7 over PRMT3” value worked out at 3 fold. Also, the half-maximal inhibitory concentration (IC50) on human recombinant PRMT9 was greater than 10 µM. In addition, at PRMT1, the “selectivity index for PRMT7 over PRMT1” value is recorded as 0.38 fold. Besides, the “selectivity index for PRMT7 over PRMT8” value at PRMT8 is 0.3 fold.
Regarding `CCOC(=O)c1cc2cc(NC(=O)CNC(=O)Nc3ccc([N+](=O)[O-])cc3)ccc2[nH]1` [EML105], on human recombinant PRMT9, the “PRMT9 IC50” value is “no inhibition” and the “PRMT9 inhibition (in words)” value is reported as “no PRMT9 inhibition; also recorded: no activity”.
The like results for `COC(=O)c1cc(O)c2cc(NC(=O)Nc3ccc4cc(C(=O)OC)cc(O)c4c3)ccc2c1` [EML107] were, in that order, “no inhibition” and “no PRMT9 inhibition; also recorded: no activity”.
The like results for `O=C(Nc1ccc2cc(C(=O)O)cc(O)c2c1)Nc1ccc2cc(C(=O)O)cc(O)c2c1` [EML108] were, in that order, “no inhibition” and “no PRMT9 inhibition; also recorded: no activity”.
The like results for `O=C(Nc1ccc2[nH]cc(C(=O)O)c2c1)Nc1ccc2[nH]cc(C(=O)O)c2c1` [EML145] were, in that order, “no inhibition” and “no PRMT9 inhibition; also recorded: no activity”.
In the case of `COC(=O)c1c[nH]c2ccc(NC(=O)CC(=O)Nc3ccc4[nH]cc(C(=O)OC)c4c3)cc12` [EML147], on human recombinant PRMT9, the “PRMT9 IC50” value was “no inhibition” and the “PRMT9 inhibition (in words)” value is “no PRMT9 inhibition; also recorded: no activity”.
The like results for `O=C(CC(=O)Nc1ccc2[nH]cc(C(=O)O)c2c1)Nc1ccc2[nH]cc(C(=O)O)c2c1` [EML148] were, in that order, “no inhibition” and “no PRMT9 inhibition; also recorded: no activity”.
